The values that follow come from patent US20250171437A1 (Agios Pharmaceuticals,Inc., priority 2022, published 2025).

The term AC50 denotes the concentration giving half of the maximal activity seen.

The first assay addresses T1, human PAH with the R408W mutation (A375 R408W cells) (Homo sapiens, UniProt P00439, R408W).
T1 construct: expressed in transfected cells
T1 sequence (P00439 1-452 R408W): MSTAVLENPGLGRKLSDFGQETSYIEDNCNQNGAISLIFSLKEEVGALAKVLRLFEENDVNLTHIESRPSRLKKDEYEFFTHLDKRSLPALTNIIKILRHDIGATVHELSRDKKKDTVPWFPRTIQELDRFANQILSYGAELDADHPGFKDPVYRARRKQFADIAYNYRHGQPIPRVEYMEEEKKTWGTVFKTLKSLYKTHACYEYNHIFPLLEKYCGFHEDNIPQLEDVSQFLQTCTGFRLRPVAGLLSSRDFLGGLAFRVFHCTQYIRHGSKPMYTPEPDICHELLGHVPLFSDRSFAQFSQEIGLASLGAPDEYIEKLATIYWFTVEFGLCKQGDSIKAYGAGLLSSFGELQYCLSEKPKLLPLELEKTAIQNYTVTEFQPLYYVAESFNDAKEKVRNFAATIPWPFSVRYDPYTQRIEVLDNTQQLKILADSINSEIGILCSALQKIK
Nature of the assay: Cell Based Phenylalanine Flux Assay. The settings on record: A375 R408W cells; 24 hrs with compound, then 20 μM sepiapterin and 800 μM 13C9,15N-Phenylalanine for 4 hours; 13C-Tyrosine by LC-MS; average where tested multiple times. Here is the method:
Cells expressing R408W PAH were made by transducing A375 cells with lentivirus encoding human PAH with the R408W mutation in pLVX-Puro, then selecting with puromycin until stable cell lines were generated. A375 R408W cells were seeded into 96 well plates in DMEM+10% FBS at a density of 40,000 cells/well one hour prior to compound addition. Compounds were resuspended in DMSO, and 2-fold serial dilutions were performed to generate a 10-point dose curve. Compounds were added to plated cells in a total volume of 100 μl, and a final DMSO concentration of 0.5%. Each compound was tested in duplicate. Following compound addition, cells were placed in a 5% CO2, 37° C. tissue culture incubator for 24 hrs. After the incubation period, 20 μM sepiapterin and 800 μM 13C9,15N-Phenylalanine were added. After 4 hours, cell media was removed. An aliquot of 10 μl of cell media was combined with 200 μl of extraction buffer (80% acetonitrile/20% H2O) for each well. Determination of ^13C-Tyrosine concentration was assessed by liquid chromatography mass spectrometry.
Specific compounds disclosed herein were tested in the foregoing assay and they were determined to have an AC50 according to the following scores: (A) less than or equal to 0.500 μM, (B) greater than 0.500 and less than […], (C) greater than or equal to 1.000 and less than 5.000 μM, (D) greater than or equal to 5.000 μM, (E) no fit, and (NT) not tested, as shown below. Where a compound was tested multiple times, the average value of the tests is reported.
On to `Cn1cc(-c2nnc(C(=O)N3CCc4[nH]cnc4[C@H]3c3nc4c(F)cc(F)cc4o3)o2)cn1` [Example 522, (S)-(4-(4,6-difluorobenzo[d]oxazol-2-yl)-6,7-dihydro-1H-imidazo[4,5-c]pyridin-5(4H)-yl)(5-(1-methyl-1H-pyrazol-4-yl)-1,3,4-oxadiazol-2-yl)methanone], for which the AC50 lay within 500 to 1000 nM. Same read-out and setting: with `O=C(c1oc(-c2ccccn2)nc1C(F)F)N1CCc2[nH]cnc2[C@@H]1c1nc2cccc(F)c2o1` [Example 588, (R)-(4-(difluoromethyl)-2-(pyridin-2-yl)oxazol-5-yl)(4-(7-fluorobenzo[d]oxazol-2-yl)-6,7-dihydro-1H-imidazo[4,5-c]pyridin-5(4H)-yl)methanone] the figure was no more than 500 nM; with `Cc1nc(C(=O)N2CCc3[nH]cnc3[C@@H]2c2nc3cccc(C)c3o2)n(C)n1` [Example 908, (R)-(1,3-dimethyl-1H-1,2,4-triazol-5-yl)(4-(7-methylbenzo[d]oxazol-2-yl)-6,7-dihydro-1H-imidazo[4,5-c]pyridin-5(4H)-yl)methanone], 1000 to 5000 nM. Still for that read-out and setting: with `Cc1cccc2nc([C@@H]3c4nc[nH]c4CCN3C(=O)c3ccnn3C)oc12` [Example 747, (S)-(1-methyl-1H-pyrazol-5-yl)(4-(7-methylbenzo[d]oxazol-2-yl)-6,7-dihydro-1H-imidazo[4,5-c]pyridin-5(4H)-yl)methanone] the figure was no more than 500 nM; with `CC(C)(C)c1nc(C(F)F)c(C(=O)N2CCc3[nH]cnc3[C@@H]2c2nc3cc(F)ccc3o2)o1` [Example 754, (R)-(2-(tert-butyl)-4-(difluoromethyl)oxazol-5-yl)(4-(5-fluorobenzo[d]oxazol-2-yl)-6,7-dihydro-1H-imidazo[4,5-c]pyridin-5(4H)-yl)methanone], 1000 to 5000 nM.

In the case of `CC(C)(O)c1nc(C(F)F)c(C(=O)N2CCc3[nH]cnc3[C@@H]2c2nc3c(Cl)cccc3o2)o1` [Example 436, [(4R)-4-(4-chloro-1,3-benzoxazol-2-yl)-1,4,6,7-tetrahydroimidazo[4,5-c]pyridin-5-yl]-[4-(difluoromethyl)-2-(1-hydroxy-1-methyl-ethyl)oxazol-5-yl]methanone], the AC50 lay within 500 to 1000 nM.

`O=C(c1cnn2cc(N3CCC(F)CC3)ccc12)N1CCc2[nH]cnc2[C@@H]1c1nc2c(F)cccc2o1` [Example 478, (R)-(4-(4-fluorobenzo[d]oxazol-2-yl)-6,7-dihydro-1H-imidazo[4,5-c]pyridin-5(4H)-yl)(6-(4-fluoropiperidin-1-yl)pyrazolo[1,5-a]pyridin-3-yl)methanone]: the AC50 was no less than 5000 nM. Same read-out and setting: the value for `CC(C)(O)c1nc(C(F)(F)F)c(C(=O)N2CCc3[nH]cnc3[C@H]2c2nc3c(F)cccc3o2)o1` [Example 257, (S)-(4-(4-fluorobenzo[d]oxazol-2-yl)-6,7-dihydro-1H-imidazo[4,5-c]pyridin-5(4H)-yl)(2-(2-hydroxypropan-2-yl)-4-(trifluoromethyl)oxazol-5-yl)methanone] was no more than 500 nM; that for `O=C(c1oc(-c2cncnc2)nc1C(F)F)N1CCc2[nH]cnc2[C@@H]1c1nc2cc(F)ccc2o1` [Example 405, (R)-(4-(difluoromethyl)-2-(pyrimidin-5-yl)oxazol-5-yl)(4-(5-fluorobenzo[d]oxazol-2-yl)-6,7-dihydro-1H-imidazo[4,5-c]pyridin-5(4H)-yl)methanone] was 500 to 1000 nM; that for “(R)-(4-(5-fluorobenzo[d]oxazol-2-yl)-6,7-dihydro-1H-imidazo[4,5-c]pyridin-5(4H)-yl)(6-(methoxymethyl)pyrazolo[1,5-a]pyridin-3-yl)methanone [Example 30]” was no less than 5000 nM. In the case of `O=C(c1cnn2cc(N3CCOCC3)ccc12)N1CCc2[nH]cnc2[C@H]1c1nc2c(F)cccc2o1` [Example 504, (S)-(4-(4-fluorobenzo[d]oxazol-2-yl)-6,7-dihydro-1H-imidazo[4,5-c]pyridin-5(4H)-yl)(6-morpholinopyrazolo[1,5-a]pyridin-3-yl)methanone], the AC50 was in the range of 500 to 1000 nM.

Turning to `COc1ccc(-c2nc(C(F)F)c(C(=O)N3CCc4[nH]cnc4[C@@H]3c3nc4cccc(F)c4o3)o2)nc1` [Example 615, (R)-(4-(difluoromethyl)-2-(5-methoxypyridin-2-yl)oxazol-5-yl)(4-(7-fluorobenzo[d]oxazol-2-yl)-6,7-dihydro-1H-imidazo[4,5-c]pyridin-5(4H)-yl)methanone], the AC50 is no more than 500 nM.

`CC(C)(O)c1nc(C(F)F)c(C(=O)N2CCc3[nH]cnc3[C@@H]2c2nc3cc(C(F)(F)F)ccc3o2)o1` [Example 328, (R)-(4-(difluoromethyl)-2-(2-hydroxypropan-2-yl)oxazol-5-yl)(4-(5-(trifluoromethyl)benzo[d]oxazol-2-yl)-6,7-dihydro-1H-imidazo[4,5-c]pyridin-5(4H)-yl)methanone]: the AC50 was no more than 500 nM.

On to `CC(C)(O)c1ncc(C(=O)N2CCc3[nH]cnc3[C@@H]2c2nc3c(F)cccc3o2)o1` [Example 894, (R)-(4-(4-fluorobenzo[d]oxazol-2-yl)-6,7-dihydro-1H-imidazo[4,5-c]pyridin-5(4H)-yl)(2-(2-hydroxypropan-2-yl)oxazol-5-yl)methanone], for which the AC50 fell in the range of 1000 to 5000 nM. Still for that read-out and setting: with `Cn1ccc(-c2nc(C(F)(F)F)c(C(=O)N3CCc4[nH]cnc4[C@H]3c3nc4cc(F)ccc4o3)o2)n1` [Example 787, (S)-(4-(5-fluorobenzo[d]oxazol-2-yl)-6,7-dihydro-1H-imidazo[4,5-c]pyridin-5(4H)-yl)(2-(1-methyl-1H-pyrazol-3-yl)-4-(trifluoromethyl)oxazol-5-yl)methanone] the figure was no more than 500 nM.

For `Cc1cc(F)c2oc([C@H]3c4nc[nH]c4CCN3C(=O)c3oc(C(C)(C)O)nc3C(F)F)nc2c1` [Example 500, (R)-(4-(difluoromethyl)-2-(2-hydroxypropan-2-yl)oxazol-5-yl)(4-(7-fluoro-5-methylbenzo[d]oxazol-2-yl)-6,7-dihydro-1H-imidazo[4,5-c]pyridin-5(4H)-yl)methanone], the AC50 is no more than 500 nM. With `O=C(c1oc(-c2ncccn2)nc1C(F)F)N1CCc2[nH]cnc2[C@@H]1c1nc2cccc(F)c2o1` [Example 668, (R)-(4-(difluoromethyl)-2-(pyrimidin-2-yl)oxazol-5-yl)(4-(7-fluorobenzo[d]oxazol-2-yl)-6,7-dihydro-1H-imidazo[4,5-c]pyridin-5(4H)-yl)methanone], the AC50 is no more than 500 nM.

`O=C(c1nnc(-c2ccccn2)o1)N1CCc2[nH]cnc2[C@@H]1c1nc2c(F)cccc2o1` [Example 334, (R)-(4-(4-fluorobenzo[d]oxazol-2-yl)-6,7-dihydro-1H-imidazo[4,5-c]pyridin-5(4H)-yl)(5-(pyridin-2-yl)-1,3,4-oxadiazol-2-yl)methanone]: the AC50 lay within 1000 to 5000 nM. The same measure, in the same setting: the value for `O=C(c1cnn2cc(-c3ccccn3)ccc12)N1CCc2[nH]cnc2[C@H]1c1nc2cc(F)ccc2o1` [Example 81, (S)-(4-(5-fluorobenzo[d]oxazol-2-yl)-6,7-dihydro-1H-imidazo[4,5-c]pyridin-5(4H)-yl)(6-(pyridin-2-yl)pyrazolo[1,5-a]pyridin-3-yl)methanone] was 500 to 1000 nM; that for `O=C(c1ocnc1C(F)(F)F)N1CCc2[nH]cnc2[C@H]1c1nc2ccc(F)cc2o1` [Example 161, (S)-(4-(6-fluorobenzo[d]oxazol-2-yl)-6,7-dihydro-1H-imidazo[4,5-c]pyridin-5(4H)-yl)(4-(trifluoromethyl)oxazol-5-yl)methanone] was no more than 500 nM.

The same assay, now with this note: A375 cells expressing R408W PAH; 24 hrs with compound, then 20 μM sepiapterin and 800 μM 13C9,15N-Phenylalanine for 4 hours; 13C-Tyrosine by LC-MS; average where tested multiple times.
For `O=C(Cc1cnco1)N1CCc2[nH]cnc2C1c1nc2cc(F)ccc2o1` (stereo not drawn), the AC50 fell in the range of 1000 to 5000 nM. Same read-out and setting: with `Cc1nc([C@H](C)O)oc1C(=O)N1CCc2[nH]cnc2C1c1nc2cc(F)ccc2o1` (single isomer, unassigned) the figure was 1000 to 5000 nM; with `O=C(c1cnco1)N1CCc2[nH]cnc2C1c1nc2c(F)cccc2o1` (stereo not drawn), no less than 5000 nM. Still for that read-out and setting: with `Cc1ccc2nc(C3c4nc[nH]c4CCN3C(=O)c3nnc(C(C)(C)O)o3)oc2c1` (stereo not drawn) the figure was no less than 5000 nM; with `O=C(c1nnc(C2CC(F)(F)C2)o1)N1CCc2[nH]cnc2C1c1nc2cc(F)ccc2o1` (stereo not drawn), 1000 to 5000 nM. Still for that read-out and setting: the value for `Cc1nc(-c2ccccn2)sc1C(=O)N1CCc2[nH]cnc2C1c1nc2cc(F)ccc2o1` (stereo not drawn) was no less than 5000 nM. With `O=C(c1cnn2cc(OCCn3cccn3)ccc12)N1CCc2[nH]cnc2[C@H]1c1nc2cc(F)ccc2o1` (single isomer, unassigned), the AC50 lay within 1000 to 5000 nM.
